# From the kinase profiling compilation of Christmann-Franck et al. (2016)
# What was measured:
# Assay in all cases: KINOMEscan competition binding
# Details in all cases: compound 1.0 µM
# CaMK1 (human) = CaMK1 (human) (UniProt Q14012)
# MAP2K1 (human) = MAP2K1 (human) (UniProt Q02750)
# CDK14 (human) = CDK14 (human) (UniProt O94921)
# ERBB3 (human) = ERBB3 (human) (UniProt P21860)
# FGR (human) = FGR (human) (UniProt P09769)
# TNK2 (human) = TNK2 (human) (UniProt Q07912)
# EPHB1 (human) = EPHB1 (human) (UniProt P54762)
# HIPK2 (human) = HIPK2 (human) (UniProt Q9H2X6)
# EPHA5 (human) = EPHA5 (human) (UniProt P54756)
# NLK (human) = NLK (human) (UniProt Q9UBE8)
# YSK4 (human) = YSK4 (human) (UniProt Q56UN5)
# [1] = tested on: KIT (human), P10721 [D816V]
# MINK1 (human) = MINK1 (human) (UniProt Q8N4C8)
# BMP2K (human) = BMP2K (human) (UniProt Q9NSY1)
# [2] = tested on: FLT3 (human), P36888 [K663Q]
# CLK1 (human) = CLK1 (human) (UniProt P49759)
# MAPK1 (human) = MAPK1 (human) (UniProt P28482)
# FER (human) = FER (human) (UniProt P16591)
# RPS6KA5 KD1 (human) = RPS6KA5 KD1 (human) (UniProt O75582)
# STK39 (human) = STK39 (human) (UniProt Q9UEW8)
# ROCK2 (human) = ROCK2 (human) (UniProt O75116)
# EPHB3 (human) = EPHB3 (human) (UniProt P54753)
# STK32C (human) = STK32C (human) (UniProt Q86UX6)
# MAPK8 (human) = MAPK8 (human) (UniProt P45983)
# TEC (human) = TEC (human) (UniProt P42680)
# MAP3K10 (human) = MAP3K10 (human) (UniProt Q02779)
# ABL2 (human) = ABL2 (human) (UniProt P42684)
# HUNK (human) = HUNK (human) (UniProt P57058)
# CDC2L2 (human) = CDC2L2 (human) (UniProt Q9UQ88)
# RET (human) = RET (human) (UniProt P07949)
# PIM2 (human) = PIM2 (human) (UniProt Q9P1W9)
# RIPK2 (human) = RIPK2 (human) (UniProt O43353)
# STK25 (human) = STK25 (human) (UniProt O00506)
# MAP3K15 (human) = MAP3K15 (human) (UniProt Q6ZN16)
# MST1R (human) = MST1R (human) (UniProt Q04912)
# DYRK1B (human) = DYRK1B (human) (UniProt Q9Y463)
# DMPK (human) = DMPK (human) (UniProt Q09013)
# STK11 (human) = STK11 (human) (UniProt Q15831)
# AURKB (human) = AURKB (human) (UniProt Q96GD4)
# TBK1 (human) = TBK1 (human) (UniProt Q9UHD2)
# WEE1 (human) = WEE1 (human) (UniProt P30291)
# WEE1 (human), sequence (P30291 whole entry, looked up): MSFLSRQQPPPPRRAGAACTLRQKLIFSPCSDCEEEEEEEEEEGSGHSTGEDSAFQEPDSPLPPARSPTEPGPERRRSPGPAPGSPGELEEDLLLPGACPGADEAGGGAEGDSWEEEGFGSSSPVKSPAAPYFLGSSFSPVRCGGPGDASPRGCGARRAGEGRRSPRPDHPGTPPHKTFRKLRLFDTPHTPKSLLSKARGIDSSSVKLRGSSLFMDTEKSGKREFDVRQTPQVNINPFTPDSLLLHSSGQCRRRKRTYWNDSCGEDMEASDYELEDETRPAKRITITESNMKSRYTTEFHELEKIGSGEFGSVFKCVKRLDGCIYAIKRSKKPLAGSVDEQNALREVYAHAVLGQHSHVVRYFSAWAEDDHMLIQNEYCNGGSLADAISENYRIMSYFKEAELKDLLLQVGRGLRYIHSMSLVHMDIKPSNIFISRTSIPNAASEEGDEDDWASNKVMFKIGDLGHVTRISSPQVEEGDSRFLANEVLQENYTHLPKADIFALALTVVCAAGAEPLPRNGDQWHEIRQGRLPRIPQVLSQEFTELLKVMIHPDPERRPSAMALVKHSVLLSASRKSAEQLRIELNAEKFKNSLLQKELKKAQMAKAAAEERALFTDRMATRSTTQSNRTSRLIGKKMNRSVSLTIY
# MAP3K10 (human), sequence (Q02779 whole entry, looked up): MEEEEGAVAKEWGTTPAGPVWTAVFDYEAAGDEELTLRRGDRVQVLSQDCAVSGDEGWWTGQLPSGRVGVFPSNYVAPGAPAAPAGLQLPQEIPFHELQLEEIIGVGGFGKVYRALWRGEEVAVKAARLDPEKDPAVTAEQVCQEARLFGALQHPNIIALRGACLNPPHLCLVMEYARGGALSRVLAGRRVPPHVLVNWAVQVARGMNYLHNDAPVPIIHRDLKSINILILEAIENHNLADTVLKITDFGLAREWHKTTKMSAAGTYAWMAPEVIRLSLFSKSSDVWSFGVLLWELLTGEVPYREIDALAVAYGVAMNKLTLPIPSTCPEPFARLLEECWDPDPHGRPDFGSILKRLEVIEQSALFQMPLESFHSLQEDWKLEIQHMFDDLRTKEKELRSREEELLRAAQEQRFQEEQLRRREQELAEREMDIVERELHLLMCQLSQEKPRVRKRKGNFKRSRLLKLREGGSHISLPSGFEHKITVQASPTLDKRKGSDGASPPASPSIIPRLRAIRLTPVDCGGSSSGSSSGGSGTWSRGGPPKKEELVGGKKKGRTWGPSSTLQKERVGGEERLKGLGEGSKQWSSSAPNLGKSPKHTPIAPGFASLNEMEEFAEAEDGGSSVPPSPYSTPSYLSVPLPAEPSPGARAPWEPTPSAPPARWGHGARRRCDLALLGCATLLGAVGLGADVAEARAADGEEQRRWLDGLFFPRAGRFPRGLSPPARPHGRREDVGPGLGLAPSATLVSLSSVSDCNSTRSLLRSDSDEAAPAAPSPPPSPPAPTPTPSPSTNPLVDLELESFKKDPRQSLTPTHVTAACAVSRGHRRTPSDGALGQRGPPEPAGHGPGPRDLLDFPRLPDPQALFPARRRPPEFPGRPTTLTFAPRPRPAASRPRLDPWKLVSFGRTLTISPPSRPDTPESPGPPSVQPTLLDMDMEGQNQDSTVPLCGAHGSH
# KIT (human), P10721 [D816V], sequence (P10721 whole entry D816V, looked up): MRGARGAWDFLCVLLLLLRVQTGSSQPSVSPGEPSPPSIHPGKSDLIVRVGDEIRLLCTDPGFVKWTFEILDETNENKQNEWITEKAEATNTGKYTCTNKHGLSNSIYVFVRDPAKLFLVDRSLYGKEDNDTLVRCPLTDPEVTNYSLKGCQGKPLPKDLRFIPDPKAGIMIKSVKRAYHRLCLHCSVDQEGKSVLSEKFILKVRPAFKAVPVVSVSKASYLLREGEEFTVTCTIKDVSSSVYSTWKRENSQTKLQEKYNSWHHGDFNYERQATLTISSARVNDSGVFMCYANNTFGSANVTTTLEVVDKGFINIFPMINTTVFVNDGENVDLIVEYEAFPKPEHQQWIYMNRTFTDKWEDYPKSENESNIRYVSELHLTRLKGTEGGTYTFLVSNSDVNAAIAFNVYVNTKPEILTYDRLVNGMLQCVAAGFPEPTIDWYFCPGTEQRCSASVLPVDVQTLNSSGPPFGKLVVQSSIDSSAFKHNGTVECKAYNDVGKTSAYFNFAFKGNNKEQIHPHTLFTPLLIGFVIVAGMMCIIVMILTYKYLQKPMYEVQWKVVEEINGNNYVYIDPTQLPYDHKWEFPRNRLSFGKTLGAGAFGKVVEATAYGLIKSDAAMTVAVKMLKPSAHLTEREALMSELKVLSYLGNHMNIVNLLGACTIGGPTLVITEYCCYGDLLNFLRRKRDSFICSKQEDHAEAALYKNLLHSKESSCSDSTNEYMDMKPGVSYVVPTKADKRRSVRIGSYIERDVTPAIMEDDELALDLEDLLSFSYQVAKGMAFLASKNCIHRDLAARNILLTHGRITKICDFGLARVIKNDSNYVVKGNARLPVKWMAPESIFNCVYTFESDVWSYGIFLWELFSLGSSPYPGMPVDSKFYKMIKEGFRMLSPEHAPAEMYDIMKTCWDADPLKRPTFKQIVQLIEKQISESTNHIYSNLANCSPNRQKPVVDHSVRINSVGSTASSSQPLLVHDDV
# STK11 (human), sequence (Q15831 whole entry, looked up): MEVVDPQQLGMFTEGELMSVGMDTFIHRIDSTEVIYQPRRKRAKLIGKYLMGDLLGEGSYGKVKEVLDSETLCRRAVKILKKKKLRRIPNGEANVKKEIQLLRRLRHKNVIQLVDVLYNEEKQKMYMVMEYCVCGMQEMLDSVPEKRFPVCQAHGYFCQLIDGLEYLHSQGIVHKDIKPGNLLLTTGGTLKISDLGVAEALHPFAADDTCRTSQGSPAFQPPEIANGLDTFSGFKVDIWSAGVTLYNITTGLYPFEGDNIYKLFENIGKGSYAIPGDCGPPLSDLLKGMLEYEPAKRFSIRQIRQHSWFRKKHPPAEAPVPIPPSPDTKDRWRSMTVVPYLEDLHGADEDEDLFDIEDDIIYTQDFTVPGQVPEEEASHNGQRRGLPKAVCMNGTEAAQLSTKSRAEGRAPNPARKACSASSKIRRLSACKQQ
# MINK1 (human), sequence (Q8N4C8 whole entry, looked up): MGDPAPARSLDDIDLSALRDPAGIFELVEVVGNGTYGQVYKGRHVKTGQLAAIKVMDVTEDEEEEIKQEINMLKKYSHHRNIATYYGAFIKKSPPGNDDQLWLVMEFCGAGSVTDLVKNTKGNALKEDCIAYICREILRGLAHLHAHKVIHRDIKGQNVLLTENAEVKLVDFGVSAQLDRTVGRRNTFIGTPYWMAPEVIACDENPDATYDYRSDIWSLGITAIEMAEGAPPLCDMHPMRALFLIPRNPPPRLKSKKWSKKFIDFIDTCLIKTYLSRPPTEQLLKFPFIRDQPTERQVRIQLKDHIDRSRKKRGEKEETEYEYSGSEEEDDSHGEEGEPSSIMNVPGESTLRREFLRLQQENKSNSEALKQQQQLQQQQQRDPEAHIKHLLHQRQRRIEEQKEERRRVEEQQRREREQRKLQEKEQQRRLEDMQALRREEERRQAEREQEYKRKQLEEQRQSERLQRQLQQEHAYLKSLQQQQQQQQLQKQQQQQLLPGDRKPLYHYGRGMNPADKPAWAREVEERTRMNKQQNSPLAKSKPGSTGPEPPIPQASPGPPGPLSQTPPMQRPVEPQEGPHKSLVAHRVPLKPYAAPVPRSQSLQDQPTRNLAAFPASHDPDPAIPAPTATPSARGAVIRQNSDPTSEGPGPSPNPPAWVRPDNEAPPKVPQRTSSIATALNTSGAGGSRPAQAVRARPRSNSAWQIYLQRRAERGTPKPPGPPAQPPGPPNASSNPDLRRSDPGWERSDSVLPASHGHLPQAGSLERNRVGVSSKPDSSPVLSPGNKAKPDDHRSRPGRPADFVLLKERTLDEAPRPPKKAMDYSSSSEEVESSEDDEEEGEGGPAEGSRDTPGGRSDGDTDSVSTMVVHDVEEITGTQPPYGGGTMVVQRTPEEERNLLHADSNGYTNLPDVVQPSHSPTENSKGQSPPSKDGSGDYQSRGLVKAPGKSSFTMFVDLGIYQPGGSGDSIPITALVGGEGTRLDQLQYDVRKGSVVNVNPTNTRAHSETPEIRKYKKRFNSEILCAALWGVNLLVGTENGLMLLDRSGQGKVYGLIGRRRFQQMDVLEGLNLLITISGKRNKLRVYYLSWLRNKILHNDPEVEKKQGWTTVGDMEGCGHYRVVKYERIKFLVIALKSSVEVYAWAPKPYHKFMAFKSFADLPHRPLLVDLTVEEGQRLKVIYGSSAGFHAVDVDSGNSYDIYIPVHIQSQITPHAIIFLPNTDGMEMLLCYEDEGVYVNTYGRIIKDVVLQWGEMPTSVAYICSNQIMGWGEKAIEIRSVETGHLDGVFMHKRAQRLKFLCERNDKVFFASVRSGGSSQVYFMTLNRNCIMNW
# PIM2 (human), sequence (Q9P1W9 whole entry, looked up): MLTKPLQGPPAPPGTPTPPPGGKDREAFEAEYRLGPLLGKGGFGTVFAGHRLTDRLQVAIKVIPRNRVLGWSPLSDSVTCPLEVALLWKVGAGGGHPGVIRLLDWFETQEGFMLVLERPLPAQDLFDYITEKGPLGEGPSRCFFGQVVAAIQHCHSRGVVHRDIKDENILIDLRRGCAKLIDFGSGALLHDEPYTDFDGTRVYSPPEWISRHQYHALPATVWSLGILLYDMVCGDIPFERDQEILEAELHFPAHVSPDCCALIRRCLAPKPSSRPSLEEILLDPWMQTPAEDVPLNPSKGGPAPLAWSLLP
# CaMK1 (human), sequence (Q14012 whole entry, looked up): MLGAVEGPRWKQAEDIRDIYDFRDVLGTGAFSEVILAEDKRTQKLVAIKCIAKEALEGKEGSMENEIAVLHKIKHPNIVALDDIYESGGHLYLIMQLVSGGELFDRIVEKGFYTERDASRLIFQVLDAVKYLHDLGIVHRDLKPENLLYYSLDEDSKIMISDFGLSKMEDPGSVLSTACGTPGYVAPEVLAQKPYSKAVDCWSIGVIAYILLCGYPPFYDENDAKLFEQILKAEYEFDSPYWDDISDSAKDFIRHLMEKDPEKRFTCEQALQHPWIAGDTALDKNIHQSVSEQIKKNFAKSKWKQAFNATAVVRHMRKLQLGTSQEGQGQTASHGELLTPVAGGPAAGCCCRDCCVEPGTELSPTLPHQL
smiles,measurement,setting,value
Nc1cc(C(F)(F)F)c(-c2cc(N3CCOCC3)nc(N3CCOCC3)n2)cn1,inhibition of binding,CaMK1 (human),4%
same,inhibition of binding,MAP2K1 (human),0%
same,inhibition of binding,CDK14 (human),27%
same,inhibition of binding,ERBB3 (human),22%
same,inhibition of binding,FGR (human),0%
same,inhibition of binding,TNK2 (human),0%
same,inhibition of binding,EPHB1 (human),0%
same,inhibition of binding,HIPK2 (human),0%
same,inhibition of binding,EPHA5 (human),0%
same,inhibition of binding,NLK (human),0%
same,inhibition of binding,YSK4 (human),21%
same,inhibition of binding,[1],3%
same,inhibition of binding,MINK1 (human),0%
same,inhibition of binding,BMP2K (human),0%
same,inhibition of binding,[2],0%
same,inhibition of binding,CLK1 (human),58%
same,inhibition of binding,MAPK1 (human),0%
same,inhibition of binding,FER (human),0%
same,inhibition of binding,RPS6KA5 KD1 (human),0%
same,inhibition of binding,STK39 (human),2%
same,inhibition of binding,ROCK2 (human),0%
same,inhibition of binding,EPHB3 (human),4%
same,inhibition of binding,STK32C (human),0%
same,inhibition of binding,MAPK8 (human),0%
same,inhibition of binding,TEC (human),3%
same,inhibition of binding,MAP3K10 (human),0%
same,inhibition of binding,ABL2 (human),0%
same,inhibition of binding,HUNK (human),18%
same,inhibition of binding,CDC2L2 (human),19%
same,inhibition of binding,RET (human),8%
same,inhibition of binding,PIM2 (human),0%
same,inhibition of binding,RIPK2 (human),0%
same,inhibition of binding,STK25 (human),0%
same,inhibition of binding,MAP3K15 (human),0%
same,inhibition of binding,MST1R (human),0%
same,inhibition of binding,DYRK1B (human),0%
same,inhibition of binding,DMPK (human),0%
same,inhibition of binding,STK11 (human),0%
same,inhibition of binding,AURKB (human),0%
same,inhibition of binding,TBK1 (human),0%
same,inhibition of binding,WEE1 (human),2%
